The values below come from publication PMC6677322, “Dafachronic acid promotes larval development in Haemonchus contortus by modulating dauer signalling and lipid metabolism” (PLoS Pathogens, 2019).

The target in one experiment is Hc-DAF-12 (Haemonchus contortus, UniProt A0A650FMZ7). Description: luciferase reporter assay in HEK293 cells transfected with Hc-DAF-12. It is filed as cell-based. In general terms: In a reporter assay the amount or activity of a reporter protein is the signal.
In a further experiment the target is T1, Ac-DAF-12 (Ancylostoma caninum, UniProt A0A368G7M4).
T1 construct: gene ANCCAN_15412
T1 sequence (A0A368G7M4 entry or part of it): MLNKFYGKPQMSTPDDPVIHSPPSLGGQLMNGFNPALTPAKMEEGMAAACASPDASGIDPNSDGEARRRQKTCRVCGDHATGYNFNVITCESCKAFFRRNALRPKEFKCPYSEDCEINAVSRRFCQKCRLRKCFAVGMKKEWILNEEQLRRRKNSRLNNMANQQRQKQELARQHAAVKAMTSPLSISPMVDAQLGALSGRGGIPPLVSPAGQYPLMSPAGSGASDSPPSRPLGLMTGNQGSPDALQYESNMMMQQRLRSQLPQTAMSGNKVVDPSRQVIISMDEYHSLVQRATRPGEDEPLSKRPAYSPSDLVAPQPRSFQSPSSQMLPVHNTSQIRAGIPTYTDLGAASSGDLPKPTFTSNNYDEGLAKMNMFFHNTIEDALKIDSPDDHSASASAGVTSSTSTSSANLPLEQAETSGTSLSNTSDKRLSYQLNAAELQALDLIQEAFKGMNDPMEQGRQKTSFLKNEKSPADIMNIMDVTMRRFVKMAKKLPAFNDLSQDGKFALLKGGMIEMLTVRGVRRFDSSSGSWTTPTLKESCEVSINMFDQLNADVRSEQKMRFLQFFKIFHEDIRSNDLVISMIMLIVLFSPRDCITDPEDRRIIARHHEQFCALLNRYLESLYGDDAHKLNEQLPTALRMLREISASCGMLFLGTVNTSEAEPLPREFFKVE
In words: luciferase reporter assay in HEK293 cells. The format is cell-based.

Hc-DAF-12, sequence (A0A650FMZ7 entry or part of it): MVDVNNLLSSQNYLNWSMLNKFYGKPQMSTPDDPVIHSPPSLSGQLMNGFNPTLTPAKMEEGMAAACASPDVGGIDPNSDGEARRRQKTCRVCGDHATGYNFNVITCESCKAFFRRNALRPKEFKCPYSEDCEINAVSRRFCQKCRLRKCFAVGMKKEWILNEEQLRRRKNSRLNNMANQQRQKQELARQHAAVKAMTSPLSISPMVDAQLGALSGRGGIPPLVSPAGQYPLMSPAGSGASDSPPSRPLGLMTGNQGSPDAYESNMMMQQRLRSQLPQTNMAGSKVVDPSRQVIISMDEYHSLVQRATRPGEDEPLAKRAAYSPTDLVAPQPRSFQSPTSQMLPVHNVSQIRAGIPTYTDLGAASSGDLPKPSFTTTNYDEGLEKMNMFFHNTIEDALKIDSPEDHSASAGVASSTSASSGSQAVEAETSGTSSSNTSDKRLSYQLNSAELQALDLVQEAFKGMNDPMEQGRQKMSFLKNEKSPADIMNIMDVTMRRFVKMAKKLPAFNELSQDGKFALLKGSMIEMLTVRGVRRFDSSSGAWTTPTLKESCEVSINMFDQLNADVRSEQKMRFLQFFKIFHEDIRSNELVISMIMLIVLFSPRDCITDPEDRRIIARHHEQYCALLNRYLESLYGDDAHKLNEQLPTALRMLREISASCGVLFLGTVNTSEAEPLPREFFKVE

For the molecule `C[C@H](CCC[C@H](C)C(=O)O)[C@H]1CC[C@H]2C3=CC[C@H]4CC(=O)CC[C@]4(C)[C@H]3CC[C@]12C` [(25S)-Δ7-DA], the EC50 on Hc-DAF-12 worked out at 12.5 nM; on Ac-DAF-12, 12.8 nM.

The EC50 is the concentration at which the effect is half-maximal.
